Measured values: patent publication US20130184302A1, “METHODS FOR TREATING IRRITABLE BOWEL SYNDROME (IBS) AND INFECTIONS” (priority 2011, published 2013)

How the values were obtained:
[1] = tested on: subjects with d-IBS; assay: Adequate relief of IBS symptoms and bloating (weekly yes/no questions), rifaximin BID study in d-IBS; type: in vivo, human; settings: for Adequate Relief of Bloating: Failure / Adequate Relief of IBS symptoms: Failure / Adequate Relief of Bloating: Success / Adequate Relief of IBS symptoms: Success: Male; for Adequate Relief of Bloating: Success / Adequate Relief of IBS symptoms: Success: end of the Treatment Phase; for Percentage of Subjects with Adequate Relief of Bloating Symptom / Percentage of Subjects with Adequate Relief of IBS Symptoms: RFX 550 mg BID 14 days, ITT N = 191; for Percentage of Subjects with Adequate Relief of Bloating Symptom: at least two of the final three weeks of treatment phase; for Percentage of Subjects with Adequate Relief of IBS Symptoms: at least two of the final three weeks of treatment phase (Weeks 1 to 4); for Adequate Relief of Bloating, Post Treatment: Failures / Adequate Relief of Bloating, Post Treatment: Success / Adequate Relief of Bloating, Post Treatment: Failure: RFX 550 2w (N = 54); for Patients with adequate relief of bloating / Patients with adequate relief of global IBS symptoms: rifaximin 550 mg twice daily 14 days
Protocol: This example relates to a study of rifaximin in subjects with d-IBS. […] There were two measures of efficacy assessed. Subjects were questioned on the relief of overall IBS symptoms and bloating. […] The analyses defined success as a “yes” response to questions regarding adequate relief.
All subpopulations in the study responded to therapy. Baseline severity was determined using 7-point Lickert scales during screening for Abdominal Pain/Discomfort and Bloating, and the number, type (normal, hard, loose) and urgency of bowel movements.
Duration of effect was assessed in a follow-up period. Subjects that responded in the 4 week treatment period were followed for an additional 3 months.
The effect of treatment on the percentage of subjects who reported adequate relief of IBS and bloating symptoms for at least two of the final three weeks during the treatment phase (Weeks 1 to 4) is shown in Tables 5-7 and FIGS. 4-6 below.
The study assessed the effect over 12 weeks of follow-up on long-term adequate relief. Subjects who had adequate relief by Week 4 and remained symptom-free at Week 5 were followed during the post-treatment phase and shown in FIGS. 1 and 2. Superiority to placebo was maintained during the 12 weeks post-treatment follow-up. Results for IBS symptoms were RFX 550 mg BID 62.3% versus placebo 49.2%, and RFX 550 mg BID 59.3% versus 50.9% for placebo for the symptom of bloating through week 16. In assessing the follow-up data, there was statistical significance (p<0.05) of bloating and IBS symptoms for RFX 550 mg BID versus placebo.
Two measures of efficacy were assessed independently. The first was the proportion of subjects who provided a ‘yes’ response to the weekly SGA question: “In the past 7 days, have you had adequate relief of your IBS symptoms? (yes/no)”. The second endpoint was the proportion of subjects who provide a ‘yes’ response to the weekly individual symptom question: “In the past 7 days, have you had adequate relief of your symptom of bloating? (yes/no)”. Durability was based on the proportion of subjects that had adequate relief over the entire treatment phase.
It is reported herein that the severity of baseline symptoms of abdominal pain and bloating influenced the response to rifaximin treatment. The co-primary endpoints in this analysis assessed weekly yes/no responses to questions regarding adequate relief of global IBS symptoms and IBS-associated bloating. Severity of baseline IBS symptoms was evaluated as a potential confounder of clinical response and was categorized as mild/moderate or severe based on a mean score of ≦4 vs. >4 (on a 7-point scale) for bloating and abdominal pain.
The Weekly yes/no responses to questions regarding adequate relief of global IBS symptoms and IBS-associated bloating were assessed. Clinical response was defined as adequate relief for 2 of the final 3 treatment weeks (wk 2, 3, or 4). Severity of baseline IBS symptoms was evaluated as a potential confounder of clinical response and was categorized as mild/moderate or severe based on a mean score of ≦4 versus >4 (on a 7-point scale (0=not bothersome; 6=very bothersome)) for bloating and abdominal pain.

[2] = tested on: C. difficile infection (CDI); assay: CDI trial: global cure of diarrhea; type: in vivo, human
Excerpt: Subjects having a global cure of diarrhea are set for the in Table 45. Global cure of diarrhea was defined as subjects who were cured of diarrhea at TOC without recurrence at follow up.

[3] = patients with mild/moderate abdominal pain at baseline
[4] = patients with mild/moderate bloating at baseline
[5] = Rifaximin N = 117, Vancomycin N = 115
[6] = cured of diarrhea at TOC without recurrence at follow up, Rifaximin N = 117, Vancomycin N = 115

## CO[C@H]1/C=C/O[C@@]2(C)Oc3c(C)c(O)c4c(O)c(c5c(nc6cc(C)ccn65)c4c3C2=O)NC(=O)/C(C)=C\C=C\[C@H](C)[C@H](O)[C@@H](C)[C@@H](O)[C@@H](C)[C@H](OC(C)=O)[C@@H]1C [Rifaximin, (2S,16Z,18E,20S,21S,22R, 23R,24R,25S,26S,27S,28E)-5,6,21,23,25 Pentahydroxy-27-methoxy-2,4,11,16,20,22,24,26-octamethyl-2,7-(epoxypentadeca-(1,11,13)trienimino) benzofuro (4,5-e) pyrido(1,2,-a) benzimidazole-1,15(2H)-dione,25-acetate]
[1]; RFX 550 2w
  Adequate Relief of Bloating: Failure: 29 (53.7%)
  Adequate Relief of IBS symptoms: Failure: 25 (46.3%)
  Adequate Relief of Bloating: Success: 25 (46.3%)
  Adequate Relief of IBS symptoms: Success: 29 (53.7%)
[1]; RFX 550 4w
  Adequate Relief of Bloating: Failure: 16 (72.7%)
  Adequate Relief of IBS symptoms: Failure: 15 (68.2%)
  Adequate Relief of Bloating: Success: 6 (27.3%)
  Adequate Relief of IBS symptoms: Success: 7 (31.8%)
[1]; RFX 1100 2w
  Adequate Relief of Bloating: Failure: 16 (61.5%)
  Adequate Relief of IBS symptoms: Failure: 14 (53.8%)
  Adequate Relief of Bloating: Success: 10 (38.5%)
  Adequate Relief of IBS symptoms: Success: 12 (46.2%)
[1]
  Percentage of Subjects with Adequate Relief of Bloating Symptom: 46%
  Percentage of Subjects with Adequate Relief of IBS Symptoms: 52%
[1]; listed as RFX
  Percentage of Subjects with Adequate Relief of IBS Symptoms: 52.4%
  Percentage of Subjects with Adequate Relief of Bloating Symptom: 46.1%
[1]; Week 6
  Adequate Relief of Bloating, Post Treatment: Failures: (9.3%)
  Adequate Relief of Bloating, Post Treatment: Success: (90.7%)
[1]; Week 7
  Adequate Relief of Bloating, Post Treatment: Failures: (16.7%)
  Adequate Relief of Bloating, Post Treatment: Success: (83.3%)
[1]; Week 8
  Adequate Relief of Bloating, Post Treatment: Failures: (13.0%)
  Adequate Relief of Bloating, Post Treatment: Success: (87.0%)
[1]; Week 9
  Adequate Relief of Bloating, Post Treatment: Failures: (27.8%)
  Adequate Relief of Bloating, Post Treatment: Success: (72.2%)
[1]; Week 10
  Adequate Relief of Bloating, Post Treatment: Failures: (27.8%)
  Adequate Relief of Bloating, Post Treatment: Success: (72.2%)
[1]; Week 11
  Adequate Relief of Bloating, Post Treatment: Failures: (35.2%)
  Adequate Relief of Bloating, Post Treatment: Success: (64.8%)
[1]; Week 12
  Adequate Relief of Bloating, Post Treatment: Failure: (33.3%)
  Adequate Relief of Bloating, Post Treatment: Success: (66.7%)
[1]; Week 13
  Adequate Relief of Bloating, Post Treatment: Failure: (38.9%)
  Adequate Relief of Bloating, Post Treatment: Success: (61.1%)
[1]; Week 14
  Adequate Relief of Bloating, Post Treatment: Failure: (37.0%)
  Adequate Relief of Bloating, Post Treatment: Success: (63.0%)
[1]; Week 15
  Adequate Relief of Bloating, Post Treatment: Failure: (42.6%)
  Adequate Relief of Bloating, Post Treatment: Success: (57.4%)
[1]; Week 16
  Adequate Relief of Bloating, Post Treatment: Failure: (40.7%)
[1]; aIBS
  Treatment effect, IBS Sx: 31.4%*, 31.4%
[1]; dIBS only
  Treatment effect, Bloating: 4.5%
  Treatment effect, IBS Sx: 6.3%
[1]; [3]
  Patients with adequate relief of bloating: 44%
  Patients with adequate relief of global IBS symptoms: 50%
[1]; [4]
  Patients with adequate relief of bloating: 47%
  Patients with adequate relief of global IBS symptoms: 56%
[1]; through week 16, RFX 550 mg BID, subjects with adequate relief by Week 4
  Long-term adequate relief of IBS symptoms, post-treatment follow-up: 62.3%
[2]; [5]
  Global Cure of Diarrhea: No, number of subjects: 34
  Global Cure of Diarrhea: No, percent of subjects: (29%)
[2]; Rifaximin vs Vancomycin
  Global Cure of Diarrhea: Treatment Difference: −3.0%
[2]; [6]
  Global Cure of Diarrhea: Yes, number of subjects: 83
  Global Cure of Diarrhea: Yes, percent of subjects: (71%)
